Structures can show the parent of a compound that is named as a salt.
How the values were obtained:
[1] = test system: mice; assay: Oral toxicity in mice; assay type: in vivo, mouse; conditions: 2 g/kg orally
Procedure: Furthermore, when a test compound was administered orally to spontaneously hypertensive rats, 3(S)-2-[N-ethyl-N-(2-n-butoxycarbonylethyl)carbamoyl]-1,2,3,4-tetrahydroisoquinoline-3-carboxylic acid 1/2 calcium salt at a dose of 50 mg/kg decreased the blood pressure by 24 mm Hg. In addition, the toxicity of the compound (I) is considerably low. For example, when 3(S)-2-[N-ethyl-N-(2-n-butoxycarbonylethyl)carbamoyl]-1,2,3,4-tetrahydroisoquinoline-3-carboxylic acid 1/2 calcium salt was administered orally to mice at a dose of 2 g/kg, no mouse died within 7 days after said administration.

[2] = test system: spontaneously hypertensive rats (SHR); assay: Hypotensive activity in SHR (systolic blood pressure, tail plethysmographic technique); assay type: in vivo, rat; conditions: 50 mg/kg orally
Procedure: Hypotensive activity in SHR:
A test compound (dose: 50 mg/kg) suspended in an aqueous carboxymethylcellulose solution was administered orally to spontaneously hypertensive rats (SHR) fasted overnight. The systolic blood pressure of the rats was measured by the tail plethysmographic technique (The Journal of Laboratory and Clinical Medicine 78(1971), page 957). The hypotensive activity of the test compound was estimated from the decreased level of blood pressure.

## CCCCOC(=O)CCN(CC)C(=O)N1Cc2ccccc2C[C@H]1C(=O)O [3(S)-2-[N-ethyl-N-(2-n-butoxycarbonylethyl)carbamoyl]-1,2,3,4-tetrahydroisoquinoline-3-carboxylic acid 1/2 calcium salt]
[1]
  mortality within 7 days after administration: no mouse died
[2]; SHR fasted overnight, systolic
  Decrease in blood pressure (-Δ mm Hg): 24 mm Hg
[2]; hypotensive action, SHR
  Duration of action: > 6 h

From US4294832A, “Tetrahydroisoquinoline compounds and a pharmaceutical composition thereof” (Tanabe Seiyaku Co., Ltd., priority 1979, dated 1981)
